Source: patent US11179445B2, “Pharmaceutical composition and biomaterial comprising fusion peptide in which bone tissue-selective peptide bound to parathyroid hormone (PTH) or fragment thereof” (Nano Intelligent Biomedical Engineering Corporation Co. Ltd., priority 2017, dated 2021)

Tests used:
[1] = Concentration of calcium in blood of osteoporosis-induced mice (QuantiChrom calcium assay kit); format: in vivo; conditions: ovariectomized ICR mice; PTH 20 μg/kg daily for 3 months, fusion peptide 80 pg/kg weekly for 6 months
Method: Six week-old ICR mice were anesthetized by intramuscular injection using a mixture of 10 mg/kg of xylazine (Rompun®, Bayer, Korea) and 100 mg/kg of ketamine (Ketalar®, Yuhan Co., Ltd., Korea) and then the ovaries present below the bilateral kidneys were entirely removed carefully. Suturing was performed by an ordinary method and 3 mg/kg of gentamicin (Gentamycin®, JW Pharmaceutical Corporation, Korea) was intramuscularly injected.
Three months after the ovariectomy, whether or not bone loss occurred was checked. […] The change in bone density was evaluated, as compared with a group not treated with osteoporosis.
The concentration of calcium in blood was determined using a QuantiChrom™ calcium assay kit (Bioassay Systems, Hayward, Calif.). […] One of the effects of PTH on the human body is to increase the concentration of calcium in blood by affecting bones and kidneys. Therefore, long-term administration of PTH causes side effects that induce hypercalcemia.

[2] = cited from earlier work

Q: With `CC[C@H](C)[C@H](NC(=O)[C@H](CCC(=O)O)NC(=O)[C@H](CO)NC(=O)[C@@H](NC(=O)[C@@H](N)CO)C(C)C)C(=O)N[C@@H](CCC(N)=O)C(=O)N[C@@H](CC(C)C)C(=O)N[C@@H](CCSC)C(=O)N[C@@H](Cc1cnc[nH]1)C(=O)N[C@@H](CC(N)=O)C(=O)N[C@@H](CC(C)C)C(=O)NCC(=O)N[C@@H](CCCCN)C(=O)N[C@@H](Cc1cnc[nH]1)C(=O)N[C@@H](CC(C)C)C(=O)N[C@@H](CC(N)=O)C(=O)N[C@@H](CO)C(=O)N[C@@H](CCSC)C(=O)N[C@@H](CCC(=O)O)C(=O)N[C@@H](CCCN=C(N)N)C(=O)N[C@H](C(=O)N[C@@H](CCC(=O)O)C(=O)N[C@@H](Cc1c[nH]c2ccccc12)C(=O)N[C@@H](CC(C)C)C(=O)N[C@@H](CCCN=C(N)N)C(=O)N[C@@H](CCCCN)C(=O)N[C@@H](CCCCN)C(=O)N[C@@H](CC(C)C)C(=O)N[C@@H](CCC(N)=O)C(=O)N[C@@H](CC(=O)O)C(=O)N[C@H](C(=O)N[C@@H](Cc1cnc[nH]1)C(=O)N[C@@H](CC(N)=O)C(=O)N[C@@H](Cc1ccccc1)C(=O)O)C(C)C)C(C)C` [PTH, reference compound] as the molecule, how does the “concentration of calcium in blood” value [1] read?
A: increased the concentration of calcium at one month

Q: Which results are given for `CC[C@H](C)[C@H](NC(=O)[C@H](CCC(=O)O)NC(=O)[C@H](CO)NC(=O)[C@@H](NC(=O)[C@@H](N)CO)C(C)C)C(=O)N[C@@H](CCC(N)=O)C(=O)N[C@@H](CC(C)C)C(=O)N[C@@H](CCSC)C(=O)N[C@@H](Cc1cnc[nH]1)C(=O)N[C@@H](CC(N)=O)C(=O)N[C@@H](CC(C)C)C(=O)NCC(=O)N[C@@H](CCCCN)C(=O)N[C@@H](Cc1cnc[nH]1)C(=O)N[C@@H](CC(C)C)C(=O)N[C@@H](CC(N)=O)C(=O)N[C@@H](CO)C(=O)N[C@@H](CCSC)C(=O)N[C@@H](CCC(=O)O)C(=O)N[C@@H](CCCN=C(N)N)C(=O)N[C@H](C(=O)N[C@@H](CCC(=O)O)C(=O)N[C@@H](Cc1c[nH]c2ccccc12)C(=O)N[C@@H](CC(C)C)C(=O)N[C@@H](CCCN=C(N)N)C(=O)N[C@@H](CCCCN)C(=O)N[C@@H](CCCCN)C(=O)N[C@@H](CC(C)C)C(=O)N[C@@H](CCC(N)=O)C(=O)N[C@@H](CC(=O)O)C(=O)N[C@H](C(=O)N[C@@H](Cc1cnc[nH]1)C(=O)N[C@@H](CC(N)=O)C(=O)N[C@@H](Cc1ccccc1)C(=O)O)C(C)C)C(C)C` [Forteo]?
A: half-life ([2]; subcutaneous injection once a day): ≤ 1 h; side effects ([2]; upon use for a long time of 2 years or longer): hypercalcemia and even a high incidence of osteosarcoma
